These results are taken from the supplement of paper PMC11003180.

Common to all, as to assay: drug sensitivity score (DSS) from 5-dose viability curve (DSS (area-based score, 0 = no response)); higher = more sensitive (stronger viability inhibition); extreme values may be limits of the assay
The test system of test [1] is MDCK p60AmotL2-inducible + doxycycline (p60AmotL2 expressing). The conditions noted are these: doxycycline: 10 ng/mL; 72 h. Put shortly:
(§1)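 Two MDCK lines, parental and doxycycline-inducible, received doxycycline at 10 ng/mL in the medium before being plated at 2000 cells/well onto a pre-spotted 384-well oncology library of 528 drugs at five doses (1-10,000 nM). Incubation lasted 72 h at 37 °C. Viability was read by CellTiter-Glo luminescence, scaled per plate between vehicle and positive controls, and converted to drug sensitivity scores through Breeze curve fitting.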

Test [2] concerns MDCK wild-type + doxycycline. The conditions noted are these: doxycycline: 10 ng/mL; 72 h. Put shortly:
as §1

The test system of test [3] is MDCK wild-type - doxycycline. The conditions noted are these: doxycycline: none; 72 h. Put shortly: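 Parental MDCK cells, grown without doxycycline, were seeded at 2000 cells/well into 384-well plates pre-spotted with an oncology library of 528 drugs at five doses (1-10,000 nM). After 72 h at 37 °C, CellTiter-Glo luminescence was read. Viability was scaled per plate between vehicle and positive controls, and drug sensitivity scores were derived from dose-response curve fits in the Breeze pipeline.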

Turning to `C[C@H]1O[C@@H](O[C@H]2[C@@H](O)C[C@H](O[C@H]3[C@@H](O)C[C@H](O[C@H]4CC[C@@]5(C)[C@H](CC[C@@H]6[C@@H]5C[C@@H](O)[C@]5(C)[C@@H](C7=CC(=O)OC7)CC[C@]65O)C4)O[C@@H]3C)O[C@@H]2C)C[C@H](O)[C@@H]1O` [Digoxin], the drug sensitivity score in test [1] was 5.3; in test [2], 11.2; in test [3], 6.

Take `CCc1cnn2c(NCc3ccc[n+]([O-])c3)cc(N3CCCC[C@H]3CCO)nc12` [Dinaciclib]: the drug sensitivity score in test [1] amounted to 16.3; in test [2], 17; in test [3] it was 18.3.

Take `CC(=O)O[C@@]12CO[C@@H]1C[C@H](O)[C@@]1(C)C(=O)[C@H](O)C3=C(C)[C@@H](OC(=O)[C@H](O)[C@@H](NC(=O)OC(C)(C)C)c4ccccc4)C[C@@](O)([C@@H](OC(=O)c4ccccc4)[C@H]21)C3(C)C` [Docetaxel]: the drug sensitivity score in test [1] came to 27; in test [2], 23.2; in test [3], 19.3.

For `Cc1ccc(-n2nc(C(C)(C)C)cc2NC(=O)Nc2ccc(OCCN3CCOCC3)c3ccccc23)cc1` [Doramapimod], the drug sensitivity score in test [1], in test [2] and in test [3] was 0 each time.

On to `CN1CCN(c2ccc3nc(-c4c(N)c5c(F)cccc5[nH]c4=O)[nH]c3c2)CC1` [Dovitinib], for which the drug sensitivity score was 0 in test [1], 2.5 in test [2] and 0 in test [3].

As to `COc1cccc2c1C(=O)c1c(O)c3c(c(O)c1C2=O)C[C@@](O)(C(=O)CO)C[C@@H]3O[C@H]1C[C@H](N)[C@H](O)[C@H](C)O1` [Doxorubicin], the results for the drug sensitivity score in test [1], in test [2] and in test [3] were 9.8, 8.3 and 3.7, respectively.

For `C[C@H](Nc1ncnc2nc[nH]c12)c1cc2cccc(Cl)c2c(=O)n1-c1ccccc1` [Duvelisib], the drug sensitivity score in test [1], in test [2] and in test [3] was 0 in each case.

As to `Cc1ccc(NS(=O)(=O)c2cccc(C#N)c2)c2[nH]cc(C#N)c12` [E7820], the drug sensitivity score in test [1] amounted to 20.4; in test [2], 19.9; in test [3], 14.5.

For the compound `Cc1cc(Nc2cc(N3CCN(C)CC3)nc(/C=C/c3ccccc3)n2)n[nH]1` [ENMD-2076], the drug sensitivity score in test [1] is 10.7; in test [2], 8.5; in test [3] it was 6.5.

For `Cc1cc(C)c(CNC(=O)c2cc(-c3ccc(CN4CCOCC4)cc3)cc3c2cnn3C2CCCC2)c(=O)[nH]1` [EPZ-5687], the drug sensitivity score in test [1], in test [2] and in test [3] was 0 in each case.

As for `NC(=O)/C(=C/n1cnc(-c2cc(C(F)(F)F)cc(C(F)(F)F)c2)n1)c1cncnc1` [Eltanexor], the results for the drug sensitivity score in test [1], in test [2] and in test [3] were 19.9, 21.8 and 19.6, respectively.

As to `CC(C)(O)CNc1nc(Nc2ccnc(C(F)(F)F)c2)nc(-c2cccc(C(F)(F)F)n2)n1` [Enasidenib], the drug sensitivity score in test [1], in test [2] and in test [3] was 0 in each case.

`COC(=O)N[C@@H](C)CNc1nccc(-c2cn(C(C)C)nc2-c2cc(Cl)cc(NS(C)(=O)=O)c2F)n1` [Encorafenib]: the drug sensitivity score was 0 in test [1], 0 in test [2] and 0.2 in test [3].

Turning to `C[C@@H]1CN(C(=O)c2ccc(NC(=O)c3cc(O[C@H](C)c4c(Cl)ccc(F)c4Cl)c(N)nn3)cc2)C[C@H](C)N1` [Ensartinib], the results for the drug sensitivity score in test [1], in test [2] and in test [3] were 1.4, 0 and 0, respectively.

Consider `Nc1ccccc1NC(=O)c1ccc(CNC(=O)OCc2cccnc2)cc1` [Entinostat], for which the drug sensitivity score in test [1] came out at 4.4; in test [2] it was 5.5; in test [3], 5.4.
